Test results reported in patent US20240000075A1, “FUNGICIDAL ARYL AMIDINES” (CORTEVA AGRISCIENCE LLC, priority 2020, published 2024).
Where two headings read alike, the source gives them in different places.

Assays:
Zymoseptoria tritici = assay: Septoria leaf blotch of wheat, whole-plant fungicidal activity (SEPTTR); type: in vivo, Zymoseptoria tritici on wheat plants (variety 'Yuma'); conditions: read-out: % Disease Control Rating SEPTTR
Description: Example A: Evaluation of Fungicidal Activity: Septoria Leaf Blotch of Wheat (Zymoseptoria tritici; Bayer Code […]) Technical grades of materials were dissolved in acetone, which were then mixed with nine volumes of water (H2O) containing 110 ppm Triton X-100. The fungicide solutions were applied onto wheat seedlings using an automated booth sprayer to run-off. All sprayed plants were allowed to air dry prior to further handling. All fungicides were evaluated using the aforementioned method for their activity vs. all target diseases, unless stated otherwise. Wheat plants (variety 'Yuma') were grown from seed in a greenhouse in soil-less potting mix until the first leaf was fully emerged, with 7-10 seedlings per pot. These plants were inoculated with an aqueous spore suspension of Zymoseptoria tritici either 3 days prior to fungicide treatment (3 day curative; 3DC) or 1 day after fungicide treatment (1 day protectant; 1DP). After inoculation the plants were kept in 100% relative humidity for three days to permit spores to germinate and infect the leaf. The plants were then transferred to a greenhouse for disease to develop. When disease symptoms were fully expressed on the 1st leaves of untreated plants, infection levels were assessed on a scale of 0 to 100 percent disease severity. Percent disease control was calculated using the ratio of disease severity on treated plants relative to untreated plants.

Rhynchosporium commune = assay: Leaf blotch of barley, whole-plant fungicidal activity (RHYNSE); type: in vivo; conditions: 24 h, 1DP (1 day protectant), read-out: % Disease Control Rating RHYNSE
Description: Technical grades of materials were dissolved in acetone, which were then mixed with nine volumes of water (H2O) containing 110 ppm Triton X-100. The fungicide solutions were applied onto wheat seedlings using an automated booth sprayer to run-off. All sprayed plants were allowed to air dry prior to further handling. All fungicides were evaluated using the aforementioned method for their activity vs. all target diseases, unless stated otherwise. Example D: Evaluation of Fungicidal Activity: Leaf Blotch of Barley (Rhynchosporium commune; Bayer Code […]) Barley plants (variety 'Harrington') were grown from seed in a greenhouse in soil-less potting mix until the first leaf was fully emerged, with 7-10 seedlings per pot. These plants were inoculated with an aqueous spore suspension of Rhynchosporium commune after fungicide treatments. After inoculation, the plants were kept in a dark dew room with 100% relative humidity for two days to permit spores to germinate and infect the leaf. The plants were then transferred to a greenhouse for disease to develop. Fungicide formulation and application were made as described in Example A. Disease assessment was conducted as described in Example A.

Phakopsora pachyrhizi = assay: Asian soybean rust, whole-plant fungicidal activity (PHAKPA); type: in vivo; conditions: read-out: % Disease Control Rating PHAKPA
Description: Example C: Evaluation of Fungicidal Activity: Asian Soybean Rust (Phakopsora pachyrhizi; Bayer Code […]) Technical grades of materials were dissolved in acetone, which were then mixed with nine volumes of H2O containing 0.011% Tween-20. The fungicide solutions were applied onto soybean seedlings using an automated booth sprayer to run-off. All sprayed plants were allowed to air dry prior to further handling. Soybean plants (variety 'Williams 82') were grown in soil-less potting mix, with one plant per pot. Ten-day-old seedlings were used for testing. Plants were inoculated as described in Example A. Plants were incubated for 24 h in a dark dew room with 100% relative humidity then transferred to a growth room for disease to develop. Fungicide formulation and application were made as described in Example A. When disease symptoms were fully expressed, disease severity was assessed on the sprayed leaves on a scale of 0 to 100 percent. Percent disease control was calculated using the ratio of disease severity on treated plants relative to untreated plants.

Puccinia triticina = assay: Wheat brown rust, whole-plant fungicidal activity (PUCCRT); type: in vivo, Puccinia triticina on wheat plants (variety 'Yuma'); conditions: 24 h, 1DP (1 day protectant), read-out: % Disease Control Rating PUCCRT
Description: Technical grades of materials were dissolved in acetone, which were then mixed with nine volumes of water (H2O) containing 110 ppm Triton X-100. The fungicide solutions were applied onto wheat seedlings using an automated booth sprayer to run-off. All sprayed plants were allowed to air dry prior to further handling. All fungicides were evaluated using the aforementioned method for their activity vs. all target diseases, unless stated otherwise.
Example B: Evaluation of Fungicidal Activity: Wheat Brown Rust (Puccinia triticina; Synonym: Puccinia recondita f sp. tritici; Bayer Code PUCCRT)
Wheat plants (variety ‘Yuma’) were grown from seed in a greenhouse in soil-less potting mix until the first leaf was fully emerged, with 7-10 seedlings per pot. These plants were inoculated with an aqueous spore suspension of Puccinia triticina after fungicide treatments. After inoculation, the plants were kept in a dark dew room with 100% relative humidity overnight to permit spores to germinate and infect the leaf. The plants were then transferred to a greenhouse for disease to develop. Fungicide formulation, application and disease assessment followed the procedures as described in Example A.

SMILES | pest or weed control at 200 ppm (Zymoseptoria tritici; 24 h, 1DP (1 day protectant)) | pest or weed control at 200 ppm (Zymoseptoria tritici; 72 h, 3DC (3 day curative)) | pest or weed control at 200 ppm (Rhynchosporium commune) | pest or weed control at 200 ppm (Phakopsora pachyrhizi; 24 h, 1DP (1 day protectant)) | pest or weed control at 200 ppm (Phakopsora pachyrhizi; 72 h, 3DC (3 day curative)) | pest or weed control at 200 ppm (Puccinia triticina)
CCc1ccc(CC(=O)c2cc(C)c(/N=C/N(C)CC)cc2C)cc1 [Compound 6] | > 85% | 20 to 50% | > 85% | > 85% | > 85% | > 85%
CCN(C)/C=N/c1ccc(C(=O)Cc2ccc(C)cc2F)c(C)c1C [Compound 11] | < 20% | < 20% | < 20% | > 85% | > 85% | < 20%
CCN(C)/C=N/c1ccc(C(=O)Cc2ccc(C)cc2)c(C)c1C [Compound 12] | < 20% | < 20% | < 20% | 50 to 85% | 50 to 85% | < 20%
CCN(C)/C=N/c1ccc(C(=O)Cc2ccccc2)c(C)c1C [Compound 16] | < 20% | < 20% | < 20% | 50 to 85% | > 85% | < 20%
CCN(C)/C=N/c1cc(C)c(C(=O)C2CCCC2)cc1C [Compound 17] | 50 to 85% | < 20% | > 85% | > 85% | > 85% | > 85%
CCN(C)/C=N/c1cc(C)c(C(=O)Cc2ccccc2F)cc1C [Compound 18] | 50 to 85% | < 20% | > 85% | > 85% | > 85% | 50 to 85%
CCN(C)/C=N/c1cc(C)c(C(=O)CCC(F)(F)F)cc1C [Compound 19] | < 20% | 20 to 50% | 20 to 50% | > 85% | > 85% | > 85%
CCN(C)/C=N/c1cc(C)c(C(=O)Cc2ccc(F)cc2F)cc1C [Compound 20] | < 20% | < 20% | > 85% | > 85% | > 85% | > 85%
CCN(C)/C=N/c1cc(C)c(C(=O)CC(C)(C)C)cc1C [Compound 21] | 50 to 85% | < 20% | > 85% | > 85% | > 85% | > 85%
CCN(C)/C=N/c1cc(C)c(C(=O)CCC(C)C)cc1C [Compound 22] | < 20% | < 20% | > 85% | > 85% | > 85% | > 85%
C=CCN(C)/C=N/c1cc(C)c(C(=O)CC2CCCCC2)cc1C [Compound 39] |  |  |  | 50 to 85% | > 85% | 
Cc1cc(C(=O)CC2CCCCC2)c(C)cc1/N=C/N(C)C1CCCCC1 [Compound 40] |  |  |  | < 20% | < 20% | 
Cc1cc(C(=O)CC2CCCCC2)c(C)cc1/N=C/N1CCCC1 [Compound 41] |  |  |  | > 85% | > 85% | 
Cc1cc(C(=O)CC2CCCCC2)c(C)cc1/N=C/N1CCCCC1 [Compound 42] |  |  |  | > 85% | > 85% | 
Cc1cc(C(=O)CC2CCCCC2)c(C)cc1/N=C/N1CCOCC1 [Compound 43] |  |  |  | < 20% | < 20% | 
Cc1cc(C(=O)CC2CCCCC2)c(C)cc1/N=C/N(C)c1ccccc1 [Compound 44] |  |  |  | < 20% | < 20% | 
CCN(C)/C=N/c1ccc(C(=O)C2CCC2)cc1C [Compound 95] |  |  |  | 20 to 50% | 20 to 50% | > 85%
CCN(C)/C=N/c1ccc(C(=O)CC2CCCC2)cc1 [Compound 97] |  |  |  | 50 to 85% | 50 to 85% | 50 to 85%
CCN(C)/C=N/c1cc(C(F)(F)F)c(C(=O)C2CCC2)cc1C [Compound 98] |  |  |  | 20 to 50% | 20 to 50% | < 20%
CCN(C)/C=N/c1cc(OC)c(C(=O)C2CCC2)cc1C [Compound 99] |  |  |  | > 85% | > 85% | > 85%
CCN(C)/C=N/c1cc(C)c(C(=O)C2CCC2)cc1C(F)(F)F [Compound 100] |  |  |  | > 85% | > 85% | > 85%
CCN(C)/C=N/c1ccc(C(=O)C2CCC2)c(C)c1 [Compound 101] |  |  |  | < 20% | < 20% | < 20%
CCN(C)/C=N/c1cc(C)c(C(=O)C2CCC2)cc1F [Compound 102] |  |  |  | 50 to 85% | > 85% | > 85%
CCN(C)/C=N/c1cc(C)c(C(=O)C2CCC2)cc1OC [Compound 103] |  |  |  | 20 to 50% | > 85% | 50 to 85%
CCN(C)/C=N/c1ccc(C(=O)Cc2c(F)cc(F)cc2F)cc1C [Compound 104] |  |  |  | 50 to 85% | > 85% | > 85%
